In ChEMBL document CHEMBL5230103, “Hydroxamic acid hybrids as the potential anticancer agents: An Overview” (Eur J Med Chem, 2020):

Assays:
[1] = Cytotoxicity against human HuT 102 cells assessed as inhibition of cell growth by MTT assay; format: functional, cell-based
Histone deacetylase 1 = Histone deacetylase 1 (Homo sapiens, UniProt Q13547); experiment: Inhibition of HDAC1 (unknown origin)
[2] = biological target: T1, Protein deacetylase HDAC6 (Homo sapiens, UniProt Q9UBN7); experiment: Inhibition of HDAC6 (unknown origin)
T1 sequence (Q9UBN7 whole entry): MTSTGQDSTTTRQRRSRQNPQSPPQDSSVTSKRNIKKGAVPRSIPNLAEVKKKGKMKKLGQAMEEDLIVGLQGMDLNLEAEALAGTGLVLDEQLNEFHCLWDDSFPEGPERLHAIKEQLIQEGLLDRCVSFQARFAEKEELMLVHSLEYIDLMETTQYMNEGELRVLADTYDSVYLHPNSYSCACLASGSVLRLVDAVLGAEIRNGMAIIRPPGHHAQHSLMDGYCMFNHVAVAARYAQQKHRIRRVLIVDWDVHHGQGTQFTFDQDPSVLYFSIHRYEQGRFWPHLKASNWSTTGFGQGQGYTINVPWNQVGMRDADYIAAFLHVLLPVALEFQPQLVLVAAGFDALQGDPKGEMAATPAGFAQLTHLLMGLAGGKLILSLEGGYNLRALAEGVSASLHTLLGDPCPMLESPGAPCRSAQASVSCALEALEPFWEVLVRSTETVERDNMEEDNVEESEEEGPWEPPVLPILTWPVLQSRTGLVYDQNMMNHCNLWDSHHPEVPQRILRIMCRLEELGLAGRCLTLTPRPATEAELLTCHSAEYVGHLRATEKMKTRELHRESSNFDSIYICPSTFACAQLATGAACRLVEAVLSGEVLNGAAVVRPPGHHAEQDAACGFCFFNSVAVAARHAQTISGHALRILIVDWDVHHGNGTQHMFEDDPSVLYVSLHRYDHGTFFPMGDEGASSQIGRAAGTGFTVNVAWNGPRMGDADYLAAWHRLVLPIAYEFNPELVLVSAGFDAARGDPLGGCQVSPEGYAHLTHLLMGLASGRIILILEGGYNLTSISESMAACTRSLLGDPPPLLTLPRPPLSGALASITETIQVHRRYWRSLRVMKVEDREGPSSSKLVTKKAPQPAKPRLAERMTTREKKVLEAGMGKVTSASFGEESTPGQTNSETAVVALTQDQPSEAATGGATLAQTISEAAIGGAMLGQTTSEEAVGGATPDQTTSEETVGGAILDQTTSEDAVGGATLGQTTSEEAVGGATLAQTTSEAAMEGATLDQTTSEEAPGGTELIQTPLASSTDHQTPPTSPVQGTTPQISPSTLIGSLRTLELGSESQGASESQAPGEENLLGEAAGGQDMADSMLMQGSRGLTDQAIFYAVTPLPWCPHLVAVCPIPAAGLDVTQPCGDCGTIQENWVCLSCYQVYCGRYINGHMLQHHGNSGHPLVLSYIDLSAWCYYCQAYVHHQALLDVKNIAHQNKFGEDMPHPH

Histone deacetylase 3 = Histone deacetylase 3 (Homo sapiens, UniProt O15379); experiment: Inhibition of HDAC3 (unknown origin)
HL-60 = experiment: Antiproliferative activity against human HL-60 cells assessed as inhibition of cell growth by MTT assay; format: functional, cell-based
A549 [3] = experiment: Antitumor activity against human A549 cells xenografted in mouse assessed as inhibition of tumor growth at 30 mg/kg, ip relative to control; format: functional
Histone deacetylase = experiment: Inhibition of HDAC (unknown origin); format: protein assay, Homo sapiens
MOLT-4 = experiment: Cytotoxicity against human MOLT-4 cells assessed as inhibition of cell growth by MTT assay; format: functional, cell-based
HCT-116 = experiment: Cytotoxicity against human HCT-116 cells assessed as inhibition of cell growth by MTT assay; format: functional, cell-based
SUP-T1 = experiment: Cytotoxicity against human SUP-T1 cells assessed as inhibition of cell growth by MTT assay; format: functional, cell-based
AGS = experiment: Cytotoxicity against human AGS cells assessed as inhibition of cell growth by MTT assay; format: functional, cell-based
T47D = experiment: Cytotoxicity against human T47D cells assessed as inhibition of cell growth by MTT assay; format: functional, cell-based
SW-620 = experiment: Cytotoxicity against human SW620 cells assessed as inhibition of cell growth by MTT assay; format: functional, cell-based
HT-29 = experiment: Cytotoxicity against human HT-29 cells assessed as inhibition of cell growth by MTT assay; format: functional, cell-based
LNCaP = experiment: Cytotoxicity against human LNCaP cells assessed as inhibition of cell growth by MTT assay; format: functional, cell-based
K562 = experiment: Cytotoxicity against human K562 cells assessed as inhibition of cell growth by MTT assay; format: functional, cell-based
[4] = biological target: cGMP-specific 3',5'-cyclic phosphodiesterase (Homo sapiens, UniProt O76074); experiment: Inhibition of PDE5 (unknown origin)
PC-3 = experiment: Cytotoxicity against human PC-3 cells assessed as inhibition of cell growth by MTT assay; format: functional, cell-based
[5] = Cytotoxicity against human MCF-10A cells; format: toxicity, cell-based
[6] = Selectivity index, ratio of IC50 for cytotoxicity against human MCF-10F cells to IC50 for cytotoxicity against human A549 cells; format: toxicity, cell-based; conditions: MCF-10F cells and A549 cells, read-out: Ratio IC50
[7] = Selectivity index, ratio of IC50 for cytotoxicity against human MCF-10F cells to IC50 for cytotoxicity against human MDA-MB-231 cells; format: toxicity, cell-based; conditions: MCF-10F cells and MDA-MB-231 cells, read-out: Ratio IC50
MDA-MB-231 [8] = experiment: Cytotoxicity against human MDA-MB-231 cells assessed as inhibition of cell growth by MTT assay; format: functional, cell-based
[9] = Selectivity index, ratio of IC50 for cytotoxicity against human MCF-10A cells to IC50 for cytotoxicity against human A549 cells; format: toxicity, cell-based; conditions: MCF-10A cells and A549 cells, read-out: Ratio IC50
A549 [10] = experiment: Potency index, ratio of vorinostat IC50 to test compound IC50 for cytotoxicity against human A549 cells assessed as inhibition of cell growth by MTT assay; format: functional
MCF7 [11] = experiment: Potency index, ratio of vorinostat IC50 to test compound IC50 for cytotoxicity against human MCF7 cells assessed as inhibition of cell growth by MTT assay; format: functional
MCF7 [12] = experiment: Cytotoxicity against human MCF7 cells assessed as inhibition of cell growth by MTT assay; format: functional, cell-based
[13] = Cytotoxicity against human BEAS-2B cells; format: toxicity, cell-based
[14] = Selectivity index, ratio of IC50 for cytotoxicity against human BEAS-2B cells to IC50 for cytotoxicity against human MDA-MB-231 cells; format: toxicity, cell-based; conditions: BEAS-2B cells and MDA-MB-231 cells, read-out: Ratio IC50
[15] = Selectivity index, ratio of IC50 for cytotoxicity against human BEAS-2B cells to IC50 for cytotoxicity against human A549 cells; format: toxicity, cell-based; conditions: BEAS-2B cells and A549 cells, read-out: Ratio IC50
Histone deacetylase 2 = Histone deacetylase 2 (Homo sapiens, UniProt Q92769); experiment: Inhibition of HDAC2 (unknown origin)
[16] = Selectivity index, ratio of IC50 for cytotoxicity against human MCF-10F cells to IC50 for cytotoxicity against human MCF7 cells; format: toxicity, cell-based; conditions: MCF-10F cells and MCF7 cells, read-out: Ratio IC50
[17] = Selectivity index, ratio of IC50 for cytotoxicity against human MCF-10A cells to IC50 for cytotoxicity against human MCF7 cells; format: toxicity, cell-based; conditions: MCF-10A cells and MCF7 cells, read-out: Ratio IC50
[18] = Selectivity index, ratio of IC50 for cytotoxicity against human MCF-10A cells to IC50 for cytotoxicity against human MDA-MB-231 cells; format: toxicity, cell-based; conditions: MCF-10A cells and MDA-MB-231 cells, read-out: Ratio IC50
MDA-MB-231 [19] = experiment: Potency index, ratio of vorinostat IC50 to test compound IC50 for cytotoxicity against human MDA-MB-231 cells assessed as inhibition of cell growth by MTT assay; format: functional
A549 [20] = experiment: Cytotoxicity against human A549 cells assessed as inhibition of cell growth by MTT assay; format: functional, cell-based
[21] = Selectivity index, ratio of IC50 for cytotoxicity against human BEAS-2B cells to IC50 for cytotoxicity against human MCF7 cells; format: toxicity, cell-based; conditions: BEAS-2B cells and MCF7 cells, read-out: Ratio IC50
Histone deacetylase 8 = Histone deacetylase 8 (Homo sapiens, UniProt Q9BY41); experiment: Inhibition of HDAC8 (unknown origin)
[22] = Cytotoxicity against human MCF-10F cells; format: toxicity, cell-based
MDA-MB-231 [23] = experiment: Antitumor activity against human MDA-MB-231 cells xenografted in mouse assessed as reduction on tumor volume at 20 mg/kg, ip relative to control; format: functional; set-up: scale not given: the % may be the effect or the level left

Histone deacetylase 1, sequence (Q13547 whole entry): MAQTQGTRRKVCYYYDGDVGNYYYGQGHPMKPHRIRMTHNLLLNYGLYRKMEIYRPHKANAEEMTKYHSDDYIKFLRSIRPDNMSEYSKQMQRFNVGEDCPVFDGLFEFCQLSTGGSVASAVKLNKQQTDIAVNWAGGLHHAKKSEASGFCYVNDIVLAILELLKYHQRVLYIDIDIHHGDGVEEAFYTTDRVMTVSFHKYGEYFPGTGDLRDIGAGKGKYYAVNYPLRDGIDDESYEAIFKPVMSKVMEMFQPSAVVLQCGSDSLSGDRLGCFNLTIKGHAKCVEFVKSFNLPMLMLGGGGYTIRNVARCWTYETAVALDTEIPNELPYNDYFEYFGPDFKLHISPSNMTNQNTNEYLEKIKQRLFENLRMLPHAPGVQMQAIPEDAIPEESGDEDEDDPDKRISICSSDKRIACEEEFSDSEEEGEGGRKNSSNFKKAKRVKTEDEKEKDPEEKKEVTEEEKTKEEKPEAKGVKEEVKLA
Histone deacetylase 2, sequence (Q92769 whole entry): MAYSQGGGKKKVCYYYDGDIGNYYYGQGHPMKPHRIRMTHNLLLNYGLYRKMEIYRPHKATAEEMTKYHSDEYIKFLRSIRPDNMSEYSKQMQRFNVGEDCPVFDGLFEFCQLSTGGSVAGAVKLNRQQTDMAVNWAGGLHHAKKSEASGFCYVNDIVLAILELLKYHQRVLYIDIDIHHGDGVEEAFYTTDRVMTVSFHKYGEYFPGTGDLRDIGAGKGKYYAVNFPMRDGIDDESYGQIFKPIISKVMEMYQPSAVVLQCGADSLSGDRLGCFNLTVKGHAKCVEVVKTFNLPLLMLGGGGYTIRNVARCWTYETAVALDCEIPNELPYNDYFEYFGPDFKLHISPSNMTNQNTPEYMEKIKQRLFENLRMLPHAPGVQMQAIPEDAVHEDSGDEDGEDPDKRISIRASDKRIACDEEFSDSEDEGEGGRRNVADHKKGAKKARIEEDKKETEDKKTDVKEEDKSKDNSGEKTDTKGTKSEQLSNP
Histone deacetylase 8, sequence (Q9BY41 whole entry): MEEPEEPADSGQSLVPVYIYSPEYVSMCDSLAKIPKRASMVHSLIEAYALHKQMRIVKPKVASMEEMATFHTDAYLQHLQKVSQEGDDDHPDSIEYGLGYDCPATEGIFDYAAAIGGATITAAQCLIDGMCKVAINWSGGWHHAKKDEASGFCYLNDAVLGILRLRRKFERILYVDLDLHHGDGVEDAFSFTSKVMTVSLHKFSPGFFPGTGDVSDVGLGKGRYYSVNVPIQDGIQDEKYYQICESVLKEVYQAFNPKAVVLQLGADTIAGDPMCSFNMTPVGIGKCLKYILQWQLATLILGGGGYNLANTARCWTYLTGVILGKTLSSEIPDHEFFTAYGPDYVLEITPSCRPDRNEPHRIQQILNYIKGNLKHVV
Histone deacetylase 3, sequence (O15379 whole entry): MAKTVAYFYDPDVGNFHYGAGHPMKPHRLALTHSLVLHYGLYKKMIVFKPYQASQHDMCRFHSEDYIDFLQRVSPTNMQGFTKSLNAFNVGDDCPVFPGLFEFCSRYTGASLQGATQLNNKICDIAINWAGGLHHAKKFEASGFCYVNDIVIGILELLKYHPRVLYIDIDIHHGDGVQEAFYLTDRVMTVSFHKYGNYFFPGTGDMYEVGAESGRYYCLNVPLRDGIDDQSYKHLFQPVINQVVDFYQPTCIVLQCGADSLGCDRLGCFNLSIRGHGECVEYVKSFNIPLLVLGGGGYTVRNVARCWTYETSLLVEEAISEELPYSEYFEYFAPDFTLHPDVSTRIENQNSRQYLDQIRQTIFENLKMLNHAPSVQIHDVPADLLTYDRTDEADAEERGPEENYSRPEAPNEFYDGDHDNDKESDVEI

Structure (SMILES): O=C(/C=C/c1ccc(S(=O)(=O)Nc2cc(F)cc(F)c2)cc1)NO
- IC50 [1]: 770 nM
- IC50 (Histone deacetylase 1): 5.2 nM
- IC50 [2]: 5.2 nM
- IC50 (Histone deacetylase 3): 5.2 nM
- IC50 (HL-60): 770 nM
- inhibition in vivo at 30 mg/kg (A549 [3]): 41.5%

Structure (SMILES): O=C(CCCCCN1CCN2[C@H](Cc3c([nH]c4ccccc34)[C@H]2c2ccc(Br)cc2)C1)NO
- IC50 (Histone deacetylase): 14.5 nM
- IC50 (MOLT-4): 1500 nM
- IC50 (HCT-116): 1500 nM
- IC50 (SUP-T1): 1500 nM
- IC50 (AGS): 1500 nM
- IC50 (T47D): 1500 nM
- IC50 (SW-620): 1500 nM
- IC50 (HT-29): 1500 nM
- IC50 (LNCaP): 1500 nM
- IC50 (K562): 1500 nM
- IC50 [4]: 46.3 nM
- IC50 (PC-3): 1500 nM

Structure (SMILES): O=C(CCCCCC(=O)N(Cc1ccc(Br)s1)c1ccc(OCCN2CCOCC2)cc1)NO
- IC50 [5]: > 100000 nM
- selectivity ratio [6]: > 16.2
- selectivity ratio [7]: > 16.2
- IC50 (MDA-MB-231 [8]): 620 nM
- selectivity ratio [9]: > 16.2
- IC50 (Histone deacetylase 1): 1.14 nM
- Ratio IC50 (A549 [10]): 3.7
- Ratio IC50 (MCF7 [11]): 3.7
- IC50 [2]: 1.14 nM
- IC50 (MCF7 [12]): 620 nM
- IC50 [13]: > 100000 nM
- selectivity ratio [14]: > 16.2
- selectivity ratio [15]: > 16.2
- IC50 (Histone deacetylase 2): 1.14 nM
- selectivity ratio [16]: > 16.2
- selectivity ratio [17]: > 16.2
- selectivity ratio [18]: > 16.2
- Ratio IC50 (MDA-MB-231 [19]): 3.7
- IC50 (A549 [20]): 620 nM
- selectivity ratio [21]: > 16.2
- IC50 (Histone deacetylase 8): 1.14 nM
- IC50 [22]: > 100000 nM
- Activity (MDA-MB-231 [23]): 93%
